Measurements published in article doi:10.1101/2021.01.13.426390v3 (biorxiv, 2021).

Molecular target: T1, AGR3 (Homo sapiens, UniProt Q8TD06)
T1 sequence (Q8TD06 22-166): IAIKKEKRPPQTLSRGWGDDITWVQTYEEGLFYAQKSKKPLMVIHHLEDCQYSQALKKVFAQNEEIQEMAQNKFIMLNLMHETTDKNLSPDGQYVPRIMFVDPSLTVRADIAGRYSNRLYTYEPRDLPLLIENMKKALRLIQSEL
Test: biotin probe labelling, non-reducing SDS-PAGE, streptavidin-AP blot
Assay type: binding
Conditions: covalent; labelled compound; 30 uM probe, pH 7.4, 37 C

`O=C(CCCC[C@@H]1SC[C@@H]2NC(=O)N[C@@H]21)NCC(=O)N1C[C@@H]2CS(=O)(=O)SC[C@H]2C1` (racemic) [Biotin-GlyPyrDTDO] was tested, and the “biotin probe labelling, non-reducing SDS-PAGE, streptavidin-AP blot” value was “it was also labeled by Biotin-GlyPyrDTDO”.
